Results reported in PubChem BioAssay (NCI).
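All cell lines were grown in 96-well plates and treated with compound for 48 hours. GI50: concentration for 50% inhibition of growth. At the TGI there is no net growth.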

Experiments:
Test in all cases: NCI tumour cell line growth inhibition, 48 h; in the data active means GI50 below about 0.43 µM; inactive means the rest
[1] = test system: 786-0 renal
[2] = test system: A498 renal
[3] = test system: A549 NSCLC
[4] = test system: ACHN renal
[5] = test system: BT-549 breast
[6] = test system: CCRF-CEM leukemia
[7] = test system: COLO 205 colon
[8] = test system: DU-145 prostate
[9] = test system: EKVX NSCLC
[10] = test system: HCC-2998 colon
[11] = test system: HCT-116 colon
[12] = test system: HCT-15 colon
[13] = test system: HL-60(TB) leukemia
[14] = test system: HOP-62 NSCLC
[15] = test system: HOP-92 NSCLC
[16] = test system: HS 578T breast
[17] = test system: HT29 colon
[18] = test system: IGROV1 ovarian
[19] = test system: K-562 leukemia
[20] = test system: KM12 colon
[21] = test system: LOX IMVI melanoma
[22] = test system: M14 melanoma
[23] = test system: MALME-3M melanoma
[24] = test system: MCF7 breast
[25] = test system: MDA-MB-231 breast
[26] = test system: MDA-MB-435
[27] = test system: NCI-H226 lung
[28] = test system: NCI-H23 lung
[29] = test system: NCI-H460 lung
[30] = test system: NCI-H522 lung
[31] = test system: NCI/ADR-RES ovarian
[32] = test system: OVCAR-3 ovarian
[33] = test system: OVCAR-4 ovarian
[34] = test system: OVCAR-5 ovarian
[35] = test system: OVCAR-8 ovarian
[36] = test system: PC-3 prostate
[37] = test system: RPMI-8226 leukemia
[38] = test system: RXF 393 renal
[39] = test system: SF-268 CNS
[40] = test system: SF-295 CNS
[41] = test system: SF-539 CNS
[42] = test system: SK-MEL-2 melanoma
[43] = test system: SK-MEL-28 melanoma
[44] = test system: SK-MEL-5 melanoma
[45] = test system: SK-OV-3 ovarian
[46] = test system: SN12C renal
[47] = test system: SNB-19 CNS
[48] = test system: SNB-75 CNS
[49] = test system: SR leukemia
[50] = test system: SW-620 colon
[51] = test system: T-47D breast
[52] = test system: TK-10 renal
[53] = test system: U251 CNS
[54] = test system: UACC-257 melanoma
[55] = test system: UACC-62 melanoma
[56] = test system: UO-31 renal

CCNc1nc(-c2ccc(Cl)c(OC)c2)c(-c2ccnc(NCCNS(=O)(=O)c3ccc(Cl)cc3)n2)s1
6.63 µM: TGI [41]
7.51 µM: TGI [49]
6.61 µM: TGI [7]
40.6 µM: TGI [26]
5.27 µM: TGI [32]
5.1 µM: TGI [38]
41.8 µM: TGI [52]
38 µM: TGI [5]
29.8 µM: TGI [48]
3.83 µM: TGI [40]
6.37 µM: TGI [56]
87.2 µM: TGI [16]
8.39 µM: TGI [37]
49.4 µM: TGI [54]
7.39 µM: TGI [23]
5.69 µM: TGI [21]
5.03 µM: TGI [25]
4.41 µM: TGI [42]
4.35 µM: TGI [30]
6.52 µM: TGI [2]
5.49 µM: TGI [55]
53.6 µM: TGI [3]
> 100 µM: TGI [4] | TGI [6] | TGI [8] | TGI [9] | TGI [10] | TGI [12] | TGI [18] | TGI [19] | TGI [20] | TGI [22] | TGI [24] | TGI [28] | TGI [29] | TGI [31] | TGI [33] | TGI [34] | TGI [35] | TGI [36] | TGI [39] | TGI [43] | TGI [46] | TGI [47] | TGI [50]
inactive: GI50 [1] 3.46 µM | GI50 [2] 1.5 µM | GI50 [3] 3.57 µM | GI50 [4] 3.14 µM | GI50 [5] 3.09 µM | GI50 [6] 2.83 µM | GI50 [7] 2.32 µM | GI50 [8] 3.94 µM | GI50 [9] 3.74 µM | GI50 [10] 4.97 µM | GI50 [11] 2.65 µM | GI50 [12] 3.36 µM | GI50 [13] 2.87 µM | GI50 [14] 3.2 µM | GI50 [15] 2.64 µM | GI50 [16] 3.98 µM | GI50 [17] 2.92 µM | GI50 [18] 4.68 µM | GI50 [19] 3.17 µM | GI50 [20] 3.52 µM | GI50 [21] 2.32 µM | GI50 [22] 3.82 µM | GI50 [23] 2.2 µM | GI50 [24] 3.03 µM | GI50 [25] 2.15 µM | GI50 [26] 3.02 µM | GI50 [27] 2.81 µM | GI50 [28] 3.5 µM | GI50 [29] 3.2 µM | GI50 [30] 1.92 µM | GI50 [31] 3.51 µM | GI50 [32] 2.45 µM | GI50 [33] 3.82 µM | GI50 [34] 3.67 µM | GI50 [35] 3.88 µM | GI50 [36] 2.99 µM | GI50 [37] 2.93 µM | GI50 [38] 2 µM | GI50 [39] 4.03 µM | GI50 [40] 1.89 µM | GI50 [41] 2.51 µM | GI50 [42] 2 µM | GI50 [43] 3.33 µM | GI50 [44] 1.56 µM | GI50 [45] 3.66 µM | GI50 [46] 3.41 µM | GI50 [47] 4.59 µM | GI50 [48] 2.35 µM | GI50 [49] 2.7 µM | GI50 [50] 4.22 µM | GI50 [51] 2.48 µM | GI50 [52] 4.09 µM | GI50 [53] 3.24 µM | GI50 [54] 3.44 µM | GI50 [55] 2.11 µM | GI50 [56] 2.51 µM
6.25 µM: TGI [11]
3.23 µM: TGI [44]
55.1 µM: TGI [45]
10.3 µM: TGI [53]
7.69 µM: TGI [14]
7.16 µM: TGI [13]
8.02 µM: TGI [51]
13.9 µM: TGI [1]
9.58 µM: TGI [15]
14.3 µM: TGI [27]
20.1 µM: TGI [17]
